Like-named read-outs stand apart in the source and are kept apart here. Each block holds one molecule with its values, some of them ahead of it.
What was measured:
[1] = target: Muscarine-Cholinergic Receptor (Hippocampus); experiment: Muscarine-Cholinergic Receptor Binding, hippocampus; set-up: species or system rat
Procedure: The IC50 values were calculated in the manner described by Y. C.

mice [2] = experiment: Reversal of Scopolamine-Induced Transient Disruption of the Memory of a Passive Avoidance Procedure; assay type: in vivo; conditions: scopolamine 0.6 mg/kg i.p.
Procedure: 1. […] The animals used were mice, to which scopolamine was administered at a dosage of 0.6 mg/kg, i.p.

Acute Toxicity (LD50) = conditions: in vivo, po; mouse
Procedure: The acute toxicity of the test compounds was determined in the conventional manner, in the mouse.

mice [3] = experiment: Hypoxia Tolerance Test; assay type: in vivo; conditions: 96.5% nitrogen, 3.5% oxygen, effective: at most 1-2 treated animals died when 7-8 untreated had died
Procedure: 2. Hypoxia Tolerance Test
In the method employed, mice which are untreated controls or which have been pretreated with the test substance (p.o.) are placed in respective sealed chambers which are filled with a gas mixture consisting of 96.5% nitrogen and 3.5% oxygen. The observer waits until 7-8 of the untreated animals have died. This occurs within 6-7 minutes. If the test substance is effective, at most 1-2 of the treated animals may have died.

[4] = target: muscarine-cholinergic receptor structures in the rat cortex; experiment: Muscarine-Cholinergic Receptor Binding, cortex
Procedure: Also as described in Example 8, the compounds tested bound with high affinity to muscarine-cholinergic receptor structures in the rat cortex.
3. Muscarine-Cholinergic Receptor Binding
This test was performed according to the methods described by M. Watson et al., Life Sci., 32, 3001-3011 (1983) and R. Hammer et al., Nature, 283, 90=92 (1980). The IC50 values were calculated in the manner described by Y. C. Cheng et al., Biochemical Pharmacology, 22, 3099-3108 (1973).

[5] = printed across the Hippocampus and Cortex columns, ineffective up to the stated concentration, read-out: Muscarine Receptor Binding, IC50, Hippocampus and Cortex (ineffective up to)
[6] = Hippocampus, read-out: Muscarine Receptor Binding, IC50, Hippocampus

SMILES: COc1ccc(C(=O)N2CCCC2=O)cc1 [Aniracetam, 1-(p-methoxybenzoyl)-pyrrolidin-2-one, reference compound]
- IC50 [1, 5]: > 100 µM
- Scopolamine-Induced Memory Disruption, % Inhibition (mice [2]; 30 mg/kg p.o.): 29.7%
- Scopolamine-Induced Memory Disruption, % Inhibition (mice [2]; 50 mg/kg p.o.): 42.6%
- Scopolamine-Induced Memory Disruption, % Inhibition (mice [2]; 100 mg/kg p.o.): 49.3%

SMILES: CN1CCN(C(=O)NCC2CC(=O)N(Cc3ccccc3)C2)CC1 (centres unmarked) [Example 1, 4-(N-Methylpiperazinyl-carbonylaminomethyl)-1-benzylpyrrolidin-2-one]
- Scopolamine-Induced Memory Disruption, % Inhibition (mice [2]; 10 mg/kg p.o.): 43%
- LD50 at 336 h (Acute Toxicity (LD50)): 1500 to 2000 mg/kg

SMILES: O=C(NCC1CC(=O)N(Cc2ccccc2)C1)Nc1ccc(Cl)cc1 (centres unmarked) [Example 5, 4-(p-Chlorophenylamino-carbonylaminomethyl)-1-benzylpyrrolidin-2-one]
- Hypoxia Tolerance (mice [3]; 100 mg/kg p.o.): effective
- IC50 [1, 6]: 93 µM
- Scopolamine-Induced Memory Disruption, % Inhibition (mice [2]; 5 mg/kg p.o.): 50%
- Scopolamine-Induced Memory Disruption, % Inhibition (mice [2]; 10 mg/kg p.o.): 70%
- LD50 at 336 h (Acute Toxicity (LD50)): > 2000 mg/kg

SMILES: NC(=O)CN1CCCC1=O [Piracetam, 1-carbomyl-methyl-pyrrolidin-2-one, reference compound]
- Hypoxia Tolerance (mice [3]; 150 mg/kg p.o.): effective
- IC50 [1, 5]: > 1000 µM
- Scopolamine-Induced Memory Disruption, % Inhibition (mice [2]; 100 mg/kg p.o.): 42.9%
- Scopolamine-Induced Memory Disruption, % Inhibition (mice [2]; 200 mg/kg p.o.): 53.7%
- Scopolamine-Induced Memory Disruption, % Inhibition (mice [2]; 500 mg/kg p.o.): 50.0%

Second part, led by results:

- IC50 [1, 6]: > 100 µM
SMILES: CNC(=O)NCC1CC(=O)N(Cc2ccccc2)C1 (centres unmarked) [Example 7]
- Scopolamine-Induced Memory Disruption, % Inhibition (mice [2]; 100 mg/kg p.o.): 60%

- IC50 [1, 6]: 26 µM
- IC50 [4]: > 10 µM
SMILES: Cc1ccc(CN2CC(CNC(=O)N3CCN(C)CC3)CC2=O)cc1 (centres unmarked) [Example 13]
- Scopolamine-Induced Memory Disruption, % Inhibition (mice [2]; 50 mg/kg p.o.): 50%

- IC50 [1, 6]: > 100 µM
SMILES: CN1CCN(C(=O)N(C)CC2CC(=O)N(Cc3ccccc3)C2)CC1 (centres unmarked) [Example 17]
- Scopolamine-Induced Memory Disruption, % Inhibition (mice [2]; 30 mg/kg p.o.): 45%
